Assay results taken from ChEMBL document CHEMBL1137195, “SAR and pharmacokinetic studies on phenethylamide inhibitors of the hepatitis C virus NS3/NS4A serine protease” (Bioorg Med Chem Lett, 2004).
pKi: −log10 of the molar value.

Tests used:
[1] = target: T1, Hepatitis C virus serine protease, NS3/NS4A (Hepatitis C virus, UniProt D2K2A8+A3EZI9); test: (§1) Inhibitory activity against Hepatitis C virus Non structural protein 3 serine protease/Non structural protein 4A serine protease; format: protein-complex assay, Hepacivirus hominis
T1 sequence (D2K2A8 whole entry): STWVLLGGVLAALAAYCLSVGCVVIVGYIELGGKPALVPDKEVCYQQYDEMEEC
T1 sequence (A3EZI9 whole entry): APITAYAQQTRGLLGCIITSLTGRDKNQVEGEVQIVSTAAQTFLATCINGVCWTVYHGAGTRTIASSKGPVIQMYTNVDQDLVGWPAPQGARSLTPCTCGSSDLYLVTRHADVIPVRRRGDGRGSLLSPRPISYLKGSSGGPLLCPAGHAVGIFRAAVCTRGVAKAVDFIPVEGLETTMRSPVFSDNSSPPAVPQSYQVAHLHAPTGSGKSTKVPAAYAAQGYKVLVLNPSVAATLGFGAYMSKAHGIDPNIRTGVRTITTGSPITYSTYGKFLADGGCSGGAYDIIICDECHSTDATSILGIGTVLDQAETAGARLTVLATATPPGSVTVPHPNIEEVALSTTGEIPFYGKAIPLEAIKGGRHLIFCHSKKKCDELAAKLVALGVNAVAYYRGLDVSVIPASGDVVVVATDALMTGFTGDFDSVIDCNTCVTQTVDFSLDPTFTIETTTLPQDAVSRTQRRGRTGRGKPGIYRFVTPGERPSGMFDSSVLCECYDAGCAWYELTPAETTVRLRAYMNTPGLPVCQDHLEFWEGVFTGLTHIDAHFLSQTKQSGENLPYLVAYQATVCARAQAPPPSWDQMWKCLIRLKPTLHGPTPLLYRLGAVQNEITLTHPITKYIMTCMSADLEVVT

[2] = Half life in rats; format: ADME; settings: rat, in vivo
[3] = Area under curve in rats; format: ADME; settings: rat, in vivo
[4] = plasma clearance in rats; format: ADME, organism-based; settings: rat
[5] = Volume distribution in rats; format: ADME, organism-based; settings: rat, in vivo; read-out: Vdss
[6] = target: Hepatitis C virus serine protease, NS3/NS4A (Hepatitis C virus, UniProt A3EZI9+D2K2A8); test: as §1; format: protein-complex assay, Hepacivirus hominis
Sequence of Hepatitis C virus serine protease, NS3/NS4A (Hepatitis C virus, UniProt A3EZI9+D2K2A8) (D2K2A8 whole entry): as the sequence (D2K2A8 whole entry) above
Sequence of Hepatitis C virus serine protease, NS3/NS4A (Hepatitis C virus, UniProt A3EZI9+D2K2A8) (A3EZI9 whole entry): as the sequence (A3EZI9 whole entry) above

[7] = target: T1, Hepatitis C virus serine protease, NS3/NS4A; test: Inhibitory activity against Hepatitis C virus Non structural protein 3 serine protease/Non structural protein 4A serine protease: Not active at 50 uM; format: protein-complex assay, Hepacivirus hominis
[8] = Area under curve in rats at 2 mg/kg; format: ADME, organism-based; set-up: dose 2 mg/kg; settings: rat, in vivo
[9] = plasma clearance in rats at 2 mg/kg; format: ADME, organism-based; set-up: dose 2 mg/kg; settings: rat
[10] = Volume distribution in rats at 2 mg/kg; format: ADME, organism-based; set-up: dose 2 mg/kg; settings: rat, in vivo, read-out: Vdss
[11] = Half life in rats at 2 mg/kg; format: ADME, organism-based; set-up: dose 2 mg/kg; settings: rat, in vivo

**Q.** With `CC(C)COC(=O)N[C@H](C(=O)N1CC(C2CCCCC2)C[C@@H]1C(=O)N[C@@H](CC(F)F)C(=O)NCCc1c(F)cc(C(=O)O)cc1F)C(C)C` (some centres undefined) as the compound, how does the pKi [1] read?
**A.** 6.46

**Q.** And the half-life [2]?
**A.** 15 min

**Q.** And the AUC [3]?
**A.** 2.7 µM·h

**Q.** And the clearance [4]?
**A.** 44 mL/min/kg

**Q.** And the Vd [5]?
**A.** 0.45 L/kg

**Q.** With `CC(C)COC(=O)N[C@H](C(=O)N1CC(OCc2ccccc2)C[C@@H]1C(=O)N[C@@H](CC(F)F)C(=O)NCCc1c(F)cc(C(=O)O)cc1F)C(C)C` (stereo in doubt; cis) as the compound, how does the pKi [1] read?
**A.** 5.35

**Q.** With `CC(C)COC(=O)N[C@H](C(=O)N1C[C@H](C2CCCCC2)C[C@H]1C(=O)N[C@@H](CC(F)F)C(=O)NCCc1cccc(NC(C(=O)O)c2ccccc2)c1)C(C)C` (some centres undefined) as the compound, how does the pKi [6] read?
**A.** 6.19

**Q.** Which Ki [7] does the source give for `COC(=O)c1cc(F)c(CCNC(=O)[C@H](CC(F)F)NC(=O)[C@@H]2C[C@@H](C3CCCCC3)CN2C(=O)[C@@H](NC(=O)OCC(C)C)C(C)C)c(F)c1` here?
**A.** Not Active

**Q.** With `CC(C)COC(=O)N[C@H](C(=O)N1C[C@H](C2CCCCC2)C[C@H]1C(=O)N[C@@H](CC(F)F)C(=O)NCCc1c(F)ccc(OC(C)C(=O)O)c1F)C(C)C` (some centres undefined) as the compound, how does the pKi [6] read?
**A.** 6.92

**Q.** With `CC(C)COC(=O)N[C@H](C(=O)N1C[C@H](C2CCCCC2)C[C@H]1C(=O)N[C@@H](CC(F)F)C(=O)NCCc1c(F)cc(-c2nnn[nH]2)cc1F)C(C)C` as the compound, how does the pKi [6] read?
**A.** 7.00

**Q.** What about the half-life [2] of the same compound?
**A.** 74 min

**Q.** What about the AUC [3] of the same compound?
**A.** 12.4 µM·h

**Q.** And the clearance [4]?
**A.** 9 mL/min/kg

**Q.** What about the Vd [5] of the same compound?
**A.** 0.15 L/kg

**Q.** With `COc1ccc2c(O[C@@H]3C[C@@H](C(=O)N[C@@H](CC(F)F)C(=O)NCCc4c(F)cc(C(=O)O)cc4F)N(C(=O)[C@@H](NC(=O)OCC(C)C)C(C)C)C3)cc(-c3csc(NC(C)C)n3)nc2c1` as the compound, how does the pKi [6] read?
**A.** 7.70

**Q.** With `CC(C)COC(=O)N[C@H](C(=O)N1CC(c2ccccc2)C[C@@H]1C(=O)N[C@@H](CC(F)F)C(=O)NCCc1c(F)cc(C(=O)O)cc1F)C(C)C` (some centres undefined) as the compound, how does the pKi [1] read?
**A.** 6.35

**Q.** And the half-life [2]?
**A.** 72 min

**Q.** And the AUC [3]?
**A.** 1.3 µM·h

**Q.** What about the clearance [4] of the same compound?
**A.** 36 mL/min/kg

**Q.** What about the Vd [5] of the same compound?
**A.** 2.4 L/kg

**Q.** Which results are given for `CC(C)COC(=O)N[C@H](C(=O)N1CC(OCc2ccccc2)C[C@@H]1C(=O)N[C@@H](CC(F)F)C(=O)NCCc1c(F)cc(C(=O)O)cc1F)C(C)C` (stereo in doubt; trans)?
**A.** pKi [1]: 6.26; half-life [2]: 48 min; AUC [3]: 0.4 µM·h; clearance [4]: 222 mL/min/kg; Vd [5]: 4.5 L/kg

**Q.** With `CC(C)COC(=O)N[C@H](C(=O)N1C[C@H](c2ccccc2)C[C@H]1C(=O)N[C@@H](CC(F)F)C(=O)NCCc1cccc(OC(C(=O)O)c2ccccc2)c1)C(C)C` (some centres undefined) as the compound, how does the pKi [6] read?
**A.** 6.00

**Q.** With `CC(C)COC(=O)N[C@H](C(=O)N1C[C@H](c2ccccc2)C[C@H]1C(=O)N[C@@H](CC(F)F)C(=O)NCCc1cc(/C=C/C(=O)O)ccc1F)C(C)C` as the compound, how does the pKi [6] read?
**A.** 6.46

**Q.** With `CC(C)COC(=O)N[C@H](C(=O)N[C@@H](CC(C)C)C(=O)N[C@@H](CC(F)F)C(=O)NCCc1ccc(C(=O)O)cc1Cl)C(C)C` as the compound, how does the pKi [6] read?
**A.** 5.92

**Q.** With `CC(C)COC(=O)N[C@H](C(=O)N1C[C@H](c2ccccc2)C[C@H]1C(=O)N[C@@H](CC(F)F)C(=O)NCCc1cccc(/C=C/C(=O)O)c1F)C(C)C` as the compound, how does the pKi [6] read?
**A.** 6.40

**Q.** With `CC(C)COC(=O)N[C@H](C(=O)N1C[C@H](c2ccccc2)C[C@H]1C(=O)N[C@@H](CC(F)F)C(=O)NCCc1cccc(/C=C/C(=O)O)c1)C(C)C` as the compound, how does the pKi [6] read?
**A.** 5.89

**Q.** With `CC(C)COC(=O)N[C@H](C(=O)N[C@@H](CC(C)C)C(=O)N[C@@H](CC(F)F)C(=O)NCCc1c(F)cc(C(=O)O)cc1F)C(C)C` as the compound, how does the pKi [6] read?
**A.** 6.40

**Q.** With `CCC(Nc1cccc(CCNC(=O)[C@H](CC(F)F)NC(=O)[C@@H]2C[C@@H](C3CCCCC3)CN2C(=O)[C@@H](NC(=O)OCC(C)C)C(C)C)c1)C(=O)O` (some centres undefined) as the compound, how does the pKi [6] read?
**A.** 6.30

**Q.** With `COc1ccc2c(O[C@@H]3C[C@@H](C(=O)N[C@@H](CC(F)F)C(=O)NCCc4c(F)cc(C(=O)O)cc4F)N(C(=O)C(NC(=O)OCC(C)C)C(C)(C)C)C3)cc(-c3ccccc3)nc2c1` (some centres undefined) as the compound, how does the pKi [6] read?
**A.** 7.52

**Q.** With `CC(C)COC(=O)N[C@H](C(=O)N1C[C@H](C2CCCCC2)C[C@H]1C(=O)N[C@@H](CC(F)F)C(=O)NCCc1c(F)cc(C(=O)NS(C)(=O)=O)cc1F)C(C)C` as the compound, how does the pKi [6] read?
**A.** 6.35

**Q.** What about the AUC [8] of the same compound?
**A.** 0.9 µM·h

**Q.** What about the clearance [9] of the same compound?
**A.** 46 mL/min/kg

**Q.** What about the Vd [10] of the same compound?
**A.** 0.8 L/kg

**Q.** What about the half-life [11] of the same compound?
**A.** 19 min

**Q.** With `CC(C)COC(=O)N[C@H](C(=O)N1C[C@H](C2CCCCC2)C[C@H]1C(=O)N[C@@H](CC(F)F)C(=O)NCCc1c(F)ccc(OCC(=O)O)c1F)C(C)C` as the compound, how does the pKi [6] read?
**A.** 6.72
